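Five compound concentrations were applied to cells in 96-well plates for 48 hours; endpoints were derived by simple linear interpolation of the resulting dose-response curve. TGI: concentration producing complete growth inhibition.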
Experiments:
Experiment in all cases: DTP human tumour cell line panel, 48 h
A549 NSCLC = tested on: A549 NSCLC
CCRF-CEM leukemia = tested on: CCRF-CEM leukemia
HOP-92 NSCLC = tested on: HOP-92 NSCLC
MDA-MB-435 = tested on: MDA-MB-435
NCI-H226 lung = tested on: NCI-H226 lung
OVCAR-5 ovarian = tested on: OVCAR-5 ovarian
SW-620 colon = tested on: SW-620 colon
UACC-257 melanoma = tested on: UACC-257 melanoma
OVCAR-8 ovarian = tested on: OVCAR-8 ovarian

| Compound | TGI (A549 NSCLC) [µM] | TGI (CCRF-CEM leukemia) [µM] | TGI (HOP-92 NSCLC) [µM] | TGI (MDA-MB-435) [µM] | TGI (NCI-H226 lung) [µM] | TGI (OVCAR-5 ovarian) [µM] | TGI (SW-620 colon) [µM] | TGI (UACC-257 melanoma) [µM] | TGI (OVCAR-8 ovarian) [µM] |
| --- | --- | --- | --- | --- | --- | --- | --- | --- | --- |
| O=[N+]([O-])c1ccc(-n2nc3ccc4nonc4c3n2)cc1 | > 100 | > 100 | 65 | > 100 | 65.3 | > 100 | > 100 | > 100 | – |
| N#Cc1c(-c2ccc([N+](=O)[O-])cc2)c(C#N)c(=O)n(NS(=O)(=O)c2ccccc2)c1S | > 100 | 49.3 | > 100 | 81.9 | > 100 | > 100 | 45.7 | > 100 | > 100 |
| CSC(SC)=C(C(=O)c1ccc(Cl)cc1)n1c(=O)sc2cc(Br)ccc21 | > 100 | > 100 | > 100 | > 100 | > 100 | > 100 | > 100 | > 100 | > 100 |
| Cn1c(=O)c2c(nc3[nH]c(=O)c(Br)cn32)n(C)c1=O | > 100 | > 100 | > 100 | > 100 | > 100 | > 100 | > 100 | > 100 | > 100 |
| O=C1[C@@H]2[C@@H](CN3CN(c4ccccc4)N=C(c4ccccc4)[C@@]23c2ccccc2)C(=O)N1c1ccccc1 | 19.7 | – | 3.86 | 23.2 | 8.87 | 10.4 | 3.84 | 29.1 | 13.9 |
| COc1ccc(-c2ccc(C(=O)C=P(c3ccccc3)(c3ccccc3)c3ccccc3)cc2)cc1 | 25.9 | > 100 | 34 | 30 | 27.7 | 44.8 | 37.8 | 45.2 | – |
| COC1(CC[C@@H](C)COC2OC(CO)C(O)C(O)C2O)OC2C[C@H]3[C@@H]4CC[C@H]5C[C@@H](OC6OC(CO)C(OC7OC(CO)C(O)C(O)C7O)C(O)C6OC6OC(C)C(O)C(O)C6O)[C@H](O)C[C@]5(C)[C@H]4CC[C@]3(C)C2[C@@H]1C (stereo partly specified) | 3.83 | 3.9 | 12.8 | 3.5 | 4.52 | 4.57 | 4.66 | 3.5 | 3.75 |
| COc1cc2c(cc1OC)C(=O)N(c1ccc(OCCN3CCCC3)cc1)C2 | > 100 | > 100 | > 100 | > 100 | > 100 | > 100 | > 100 | > 100 | > 100 |
| CN1CCN(C(=O)c2cn(Cc3cncn3Cc3ccc4c(c3)OCO4)cc2-c2cccc3ccccc23)CC1 | > 100 | > 77.2 | 57.8 | > 58.9 | > 100 | > 100 | > 100 | 42.7 | > 100 |
| NC(=O)[C@H](Cc1ccc(O)cc1)Nc1c(O)c2c(c(O)c1Cl)C(=O)C=CC2=O | > 10 | 1.04 | 4.72 | 4 | > 10 | > 10 | 2.82 | > 10 | > 6.26 |
| COC(=O)[C@]1(c2cc3ccccc3n2S(=O)(=O)c2ccccc2)CC2CN(C(=O)OCc3ccccc3)C1C1OC(C)(C)OC21 (stereo partly specified) | > 100 | > 100 | > 100 | > 100 | > 100 | > 100 | > 100 | > 100 | > 100 |

Reference: PubChem BioAssay (NCI)
